In US7906486B2, “Method of treating or preventing tissue deterioration, injury or damage due to disease of mucosa” (SciClone Pharmaceuticals, Inc., priority 2007, dated 2011):
“And” between values parts separate entries of the source, which are not always exact repeats. Identical values can stand only once.

System: oral mucositis induced by cis-platin 5 mg/kg and radiation 35 Gy (left cheek pouch)
Assay: Oral mucositis induced by a combination of cisplatin and acute radiation in hamsters, mucositis scoring (Example 4, SCI-04)
Format: in vivo, Syrian Golden Hamsters
Design: key to Mucositis score, day 6 / Mucositis score, day 8: 0: Pouch completely healthy. No erythema or vasodilation.; 1: Light to severe erythema and vasodilation. No erosion of mucosa.; 2: Severe erythema and vasodilation. Erosion of superficial aspects of mucosa leaving denuded areas. Decreased stippling of mucosa.; 3: Formation of off-white ulcers in one or more places. Ulcers may have a yellow/gray due to pseudomembrane. Cumulative size of ulcers should equal about ¼ of the pouch. Severe erythema and vasodilation.; 4: Cumulative seize of ulcers should equal about ½ of the pouch. Loss of pliability. Severe erythema and vasodilation.; 5: Virtually all of pouch is ulcerated. Loss of pliability (pouch can only partially be extracted from mouth); key to peak mean mucositis score: standard six-point oral mucositis scale; ulceration = score ≥3
Details: for % Days >=3 / Days <3 / Days >=3: qd, sc, Days −1 to 20; for Days >=3: animal days with mucositis score of three or more
Procedure: Forty Golden Syrian hamsters were prospectively randomized into four equally sized groups. Mucositis was induced on the left cheek pouch mucosa of golden Syrian hamsters by a single dose of cis-platin at 5 mg/kg given on day −1, and a single dose of radiation administered on day 0 at a dose of 35Gy. Beginning on day −1 and continuing once daily until day 20, SCV-07 was given by sub-cutaneous injection at doses of 10 μg/kg, 100 μg/kg or 1 mg/kg in a volume of 100 μL. Animals' activity and weight were evaluated daily. Beginning on day 6 and continuing on alternate days for the duration of the study, oral mucositis was evaluated using a standard scoring six point scale. The number of days of ulcerative mucositis was evaluated using a Chi-squared test of scores of ≧3 throughout the study, and the individual daily group scores were assessed with a Rank Sum Test.
The chemo-radiation model of oral mucositis in hamsters, developed by the Principal Investigator, has proven to be an accurate, efficient and cost-effective technique to provide a preliminary evaluation of anti-mucositis compounds. In this model, hamsters received a single dose of cis-platin at 5 mg/kg on day −1, followed by a single dose of radiation of 35 Gy to the left cheek pouch on day 0, rather than the single dose of 40 Gy on day 0 that is used in acute radiation studies. The course of mucositis in this model is very similar to the acute radiation model and results in peak mucositis scores approximately 16-18 days following radiation.
Hamsters received a single dose of cis-platin at 5 mg/kg on day −1 by intra-peritoneal injection, followed by a single dose of radiation of 35 Gy to the left cheek pouch on day 0. This was accomplished by anesthetizing the animals and everting the left buccal pouch, while protecting the rest of the animal's bodies with a lead shield. Test materials were given by sub-cutaneous injection once daily as detailed in Table 13. Mucositis was evaluated clinically starting on day 6, and continuing on alternate days until day 28. Test articles were given as from day −1 to day 20.
The grade of mucositis was scored, beginning day 6, and for every second day thereafter, through and including day 28. The effect on mucositis of each drug treatment compared to placebo was assessed according to the following parameters:
On each evaluation day, the number of animals with a blinded mucositis score of ≧3 in each drug treatment group was compared to the control group. Differences were compared on a cumulative basis and statistical significance was determined by chi-square analysis. Efficacy, in this analysis, is defined by a significant reduction in the number of days that a group of animals had ulcerations (scores 3) when compared to the control group.
For each evaluation day the scores of the control group were compared to those of the treated groups using non-parametric rank sum analysis. Treatment success was considered as a statistically significant lowering of scores in the treated group on 2 or more days from day 6 to day 28.
Forty (40) male Syrian Golden Hamsters were given an intraperitoneal injection of 5 mg/kg Cisplatin on day −1. On day 0 all animals were given an acute radiation dose of 35 Gy directed to their left buccal cheek pouch. This was accomplished by anesthetizing the animals and everting the left buccal pouch, while protecting the rest of the animals with a lead shield. Test materials were given by subcutaneous injection once daily as detailed in Table 13. Mucositis was evaluated clinically starting on Day 6, and continued on alternate days until day 28.
In this study, mucositis was induced with a combination of Cis-platin and radiation. Cis-platin was given as a single injection (IP) of 5 mg/kg on day −1. Radiation was given as a single focal dose of 35 Gy on day 0. Radiation was generated with a Philips 160 kVp (kilovolt potential) (18.75-ma) X-ray source at a focal distance of 30 cm, with a 3.0 mm hardened Al filtration system. […]

[1] = printed 100 ug/kg on days -1 to 20 (second such statement, third treated group)

## N[C@H](CCC(=O)N[C@@H](Cc1c[nH]c2ccccc12)C(=O)O)C(=O)O [SCV-07, γ-D-glutamyl-L-tryptophan]
10 ug/kg days -1 to 20, day 22
  P, daily mucositis scores (Mann-Whitney rank sum) vs saline controls: 0.010
10 ug/kg days -1 to 20, day 24
  P, daily mucositis scores (Mann-Whitney rank sum) vs saline controls: 0.022
10 ug/kg days -1 to 20, day 26
  P, daily mucositis scores (Mann-Whitney rank sum) vs saline controls: 0.015
10 ug/kg days -1 to 20, day 28
  P, daily mucositis scores (Mann-Whitney rank sum) vs saline controls: < 0.001
10 ug/kg from day -1 to day 20
  % of animal days with a mucositis score of 3 or higher: 34.2%
  P, chi-squared test vs controls, days with score of 3 or higher: < 0.001
  day of peak mean mucositis score: 16
  peak mean mucositis score: 2.9
10 ug/kg
  % Days >=3: 34.2%
  Days <3: 158
  Days >=3: 82
100 ug/kg days -1 to 20, day 6
  P, daily mucositis scores (Mann-Whitney rank sum) vs saline controls: 0.015
100 ug/kg days -1 to 20, day 22
  P, daily mucositis scores (Mann-Whitney rank sum) vs saline controls: 0.003
100 ug/kg days -1 to 20, day 24
  P, daily mucositis scores (Mann-Whitney rank sum) vs saline controls: 0.005
100 ug/kg days -1 to 20, day 26
  P, daily mucositis scores (Mann-Whitney rank sum) vs saline controls: < 0.001
100 ug/kg days -1 to 20, day 28
  P, daily mucositis scores (Mann-Whitney rank sum) vs saline controls: < 0.001
100 ug/kg from day -1 to day 20
  peak mean mucositis score: 2.8
100 ug/kg on days -1 to 20
  % of animal days with a mucositis score of 3 or higher: 29.2%
  P, chi-squared test vs controls, days with score of 3 or higher: < 0.001
100 ug/kg
  % Days >=3: 29.2%
  Days <3: 170
  Days >=3: 70
1 mg/kg days -1 to 20, day 6
  P, daily mucositis scores (Mann-Whitney rank sum) vs saline controls: 0.015
1 mg/kg days -1 to 20, day 20
  P, daily mucositis scores (Mann-Whitney rank sum) vs saline controls: 0.029
1 mg/kg days -1 to 20, day 22
  P, daily mucositis scores (Mann-Whitney rank sum) vs saline controls: 0.012
1 mg/kg days -1 to 20, day 24
  P, daily mucositis scores (Mann-Whitney rank sum) vs saline controls: 0.001
1 mg/kg days -1 to 20, day 26
  P, daily mucositis scores (Mann-Whitney rank sum) vs saline controls: 0.003
1 mg/kg days -1 to 20, day 28
  P, daily mucositis scores (Mann-Whitney rank sum) vs saline controls: < 0.001
1 mg/kg from day -1 to day 20
  day of peak mean mucositis score: 16
  peak mean mucositis score: 3.2
1 mg/kg
  % Days >=3: 30.8%
  Days <3: 166
  Days >=3: 74
Group 2 (SCV-07 10 μg/kg, day -1 to day 20), individual animal scores, two scores per animal, day 6
  Mucositis score, day 6: 0 (14×) and 1 (6×)
Group 2 (SCV-07 10 μg/kg, day -1 to day 20), individual animal scores, two scores per animal, day 8
  Mucositis score, day 8: 0 (18×) and 1 (2×)
SCV-07 treated animals (all test groups), 50% in vehicle controls
  severe mucositis, % of animals days evaluated: approximately 30%
[1]
  % of animal days with a mucositis score of 3 or higher: 30.8%
  P, chi-squared test vs controls, days with score of 3 or higher: < 0.001
